Species: Rattus norvegicus
Experiment: DrugMatrix - Regimen: Daily Repeat
Format: toxicity, organism-based, Sprague-Dawley
Parameters: regimen Daily Repeat, gender Male, age 6-8 weeks
Details: in vivo, dose level High, vehicle 100 % SALINE; for SODIUM / TOTAL BILIRUBIN / TOTAL PROTEIN / URIC ACID / ALANINE AMINOTRANSFERASE / ALBUMIN / ALKALINE PHOSPHATASE / ASPARTATE AMINOTRANSFERASE / BLOOD UREA NITROGEN / CARBON DIOXIDE / CHLORIDE / CHOLESTEROL / CREATINE PHOSPHOKINASE / CREATININE / GLUCOSE / LACTATE DEHYDROGENASE / LIPASE / PHOSPHORUS / POTASSIUM: tissue Plasma; for ABSOLUTE BASOPHIL / ABSOLUTE EOSINOPHIL / ABSOLUTE LYMPHOCYTE / ABSOLUTE MONOCYTE / ABSOLUTE SEGMENTED NEUTROPHIL / BASOPHIL / EOSINOPHIL / ERYTHROCYTE COUNT / HEMATOCRIT / HEMOGLOBIN / LEUKOCYTE COUNT / LYMPHOCYTE / MEAN CORPUSCULAR HEMOGLOBIN / MEAN CORPUSCULAR HEMOGLOBIN CONCENTRATION / MEAN CORPUSCULAR VOLUME / MONOCYTE / NEUTROPHIL / NUCLEATED RED BLOOD CELLS / PLATELET COUNT: tissue Blood
[1] = ip, 40 mg/kg, […], route intraperitoneal, time 28 day
[2] = iv, 41 mg/kg, 120 h, time 5 day

CCN[C@@H]1C[C@H](N)[C@@H](O[C@H]2OC(CN)=CC[C@H]2N)[C@H](O)[C@H]1O[C@H]1OC[C@](C)(O)[C@H](NC)[C@H]1O [NETILMICIN]
SODIUM [1]: 152.1 MEQ/L
TOTAL BILIRUBIN [1]: 0.18 mg/dL
TOTAL PROTEIN [1]: 6.45 G/DL
URIC ACID [1]: 1.03 mg/dL
ABSOLUTE BASOPHIL (iv, 41 mg/kg, 72 h, time 3 day): 0 CELLS/uL
ABSOLUTE EOSINOPHIL (iv, 41 mg/kg, 72 h, time 3 day): 0 CELLS/uL
ABSOLUTE LYMPHOCYTE (iv, 41 mg/kg, 72 h, time 3 day): 13244.67 CELLS/uL
ABSOLUTE MONOCYTE (iv, 41 mg/kg, 72 h, time 3 day): 92.33 CELLS/uL
ABSOLUTE SEGMENTED NEUTROPHIL (iv, 41 mg/kg, 72 h, time 3 day): 896.33 CELLS/uL
BASOPHIL (iv, 41 mg/kg, 72 h, time 3 day): 0%
EOSINOPHIL (iv, 41 mg/kg, 72 h, time 3 day): 0%
ERYTHROCYTE COUNT (iv, 41 mg/kg, 72 h, time 3 day): 5.54 x10E6/uL
HEMATOCRIT (iv, 41 mg/kg, 72 h, time 3 day): 34.4%
HEMOGLOBIN (iv, 41 mg/kg, 72 h, time 3 day): 13.9 G/DL
LEUKOCYTE COUNT (iv, 41 mg/kg, 72 h, time 3 day): 14.23 x10E3/uL
LYMPHOCYTE (iv, 41 mg/kg, 72 h, time 3 day): 93%
MEAN CORPUSCULAR HEMOGLOBIN (iv, 41 mg/kg, 72 h, time 3 day): 25.07 pg
MEAN CORPUSCULAR HEMOGLOBIN CONCENTRATION (iv, 41 mg/kg, 72 h, time 3 day): 40.4 G/DL
MEAN CORPUSCULAR VOLUME (iv, 41 mg/kg, 72 h, time 3 day): 62.1 fL
MONOCYTE (iv, 41 mg/kg, 72 h, time 3 day): 0.67%
NEUTROPHIL (iv, 41 mg/kg, 72 h, time 3 day): 6.33%
NUCLEATED RED BLOOD CELLS (iv, 41 mg/kg, 72 h, time 3 day): 0 /100WBC
PLATELET COUNT (iv, 41 mg/kg, 72 h, time 3 day): 1289.67 x10E3/uL
ALANINE AMINOTRANSFERASE (iv, 41 mg/kg, 72 h, time 3 day): 47 u/L
ALBUMIN (iv, 41 mg/kg, 72 h, time 3 day): 4.27 G/DL
ALKALINE PHOSPHATASE (iv, 41 mg/kg, 72 h, time 3 day): 408.33 u/L
ASPARTATE AMINOTRANSFERASE (iv, 41 mg/kg, 72 h, time 3 day): 78.67 u/L
BLOOD UREA NITROGEN (iv, 41 mg/kg, 72 h, time 3 day): 16.33 mg/dL
CARBON DIOXIDE (iv, 41 mg/kg, 72 h, time 3 day): 32 mmol/L
CHLORIDE (iv, 41 mg/kg, 72 h, time 3 day): 102.67 MEQ/L
CHOLESTEROL (iv, 41 mg/kg, 72 h, time 3 day): 64.33 mg/dL
CREATINE PHOSPHOKINASE (iv, 41 mg/kg, 72 h, time 3 day): 176 u/L
CREATININE (iv, 41 mg/kg, 72 h, time 3 day): 0.16 mg/dL
GLUCOSE (iv, 41 mg/kg, 72 h, time 3 day): 156.33 mg/dL
LACTATE DEHYDROGENASE (iv, 41 mg/kg, 72 h, time 3 day): 111.67 u/L
LIPASE (iv, 41 mg/kg, 72 h, time 3 day): 9.33 u/L
PHOSPHORUS (iv, 41 mg/kg, 72 h, time 3 day): 12.53 mg/dL
POTASSIUM (iv, 41 mg/kg, 72 h, time 3 day): 7.26 MEQ/L
SODIUM (iv, 41 mg/kg, 72 h, time 3 day): 144.53 MEQ/L
TOTAL BILIRUBIN (iv, 41 mg/kg, 72 h, time 3 day): 0.23 mg/dL
TOTAL PROTEIN (iv, 41 mg/kg, 72 h, time 3 day): 5.97 G/DL
URIC ACID (iv, 41 mg/kg, 72 h, time 3 day): 1.77 mg/dL
ABSOLUTE BASOPHIL [2]: 0 CELLS/uL
ABSOLUTE EOSINOPHIL [2]: 0 CELLS/uL
ABSOLUTE LYMPHOCYTE [2]: 14425.67 CELLS/uL
ABSOLUTE MONOCYTE [2]: 210.67 CELLS/uL
ABSOLUTE SEGMENTED NEUTROPHIL [2]: 463.67 CELLS/uL
BASOPHIL [2]: 0%
EOSINOPHIL [2]: 0%
ERYTHROCYTE COUNT [2]: 5.76 x10E6/uL
HEMATOCRIT [2]: 36.3%
HEMOGLOBIN [2]: 14.47 G/DL
LEUKOCYTE COUNT [2]: 15.1 x10E3/uL
LYMPHOCYTE [2]: 95.67%
MEAN CORPUSCULAR HEMOGLOBIN [2]: 25.1 pg
MEAN CORPUSCULAR HEMOGLOBIN CONCENTRATION [2]: 39.87 G/DL
MEAN CORPUSCULAR VOLUME [2]: 62.97 fL
MONOCYTE [2]: 1.33%
NEUTROPHIL [2]: 3%
NUCLEATED RED BLOOD CELLS [2]: 0.33 /100WBC
PLATELET COUNT [2]: 1375.67 x10E3/uL
ALANINE AMINOTRANSFERASE [2]: 52 u/L
ALBUMIN [2]: 4.33 G/DL
ALKALINE PHOSPHATASE [2]: 313.33 u/L
ASPARTATE AMINOTRANSFERASE [2]: 87.67 u/L
BLOOD UREA NITROGEN [2]: 18.33 mg/dL
CARBON DIOXIDE [2]: 35 mmol/L
CHLORIDE [2]: 100.33 MEQ/L
CHOLESTEROL [2]: 60.67 mg/dL
CREATINE PHOSPHOKINASE [2]: 309.33 u/L
CREATININE [2]: 0.19 mg/dL
GLUCOSE [2]: 145.33 mg/dL
LACTATE DEHYDROGENASE [2]: 281 u/L
LIPASE [2]: 10.33 u/L
PHOSPHORUS [2]: 11.93 mg/dL
POTASSIUM [2]: 7.18 MEQ/L
SODIUM [2]: 145.03 MEQ/L
TOTAL BILIRUBIN [2]: 0.17 mg/dL

Source: ChEMBL document CHEMBL3885881, “DrugMatrix”
